Patent US20260344668A1, “PHENYLPYRAZOLE COMPOUND, AND PLANT DISEASE CONTROL METHOD” (priority 2022, published 2026)

Experiments:
[1] = system: Phakopsora pachyrhizi; assay: Test Example 11 Control Test Against Soybean Rust (pot test, spraying before inoculation); assay type: in vivo; conditions: 200 ppm foliage spray, soybeans (Kurosengoku), inoculated after 2 to 5 days
Procedure: (§1) The term of “non-treated well” in Test Example 4, Test Example 5, and Test Example 6 represents a well wherein a test was carried out under the same conditions as those described in each Test Example except for dispensing DMSO instead of a diluted solution with DMSO comprising the Present compound. Also, the term of “non-treated” in Test Examples 15 to 17 represents a test which was carried out under the same conditions as those described in each Test Example except for dispensing DMSO instead of a diluted solution with DMSO comprising the Present compound. Also, the term of “non-treated leaf disk” in Test Example 7 represents a leaf disk wherein a test was carried out under the same conditions as those described in the Test Example except for dispensing DMSO instead of a diluted solution with DMSO comprising the Present compound. Also, the term of “non-treated” in Test Example 10 and Test Example 11 means that a diluted solution with water of a formulation comprising the Present compound was not sprayed.
A plastic pot was filled with soil, soybeans (cultivar: Kurosengoku) were seeded thereto, and cultured in a greenhouse for 10 to 14 days. The Present compound 9, 10, 11, 13, 14, 15, 17, 18, 20, 21, 22, 23, 26, 27, 33, 34, 35, 36, 37, 38, 39, 40, 41, 42, 43, 44, 46, 47, 53, 54, 55, 56, 57, 58, 66, 67, 68, 69, 70, 71, 73, 74, 75, 76, 77, 78, 79, 80, 81, 82, 83, 84, 85, 86, 87, 88, 89, 90, 91, 92, 93, 94, 95, 96, 97, 98, 99, 100, 101, or 102 formulated according to the method described in the Formulation Example 1 was mixed with water in such a way that the concentration thereof was 200 ppm, and the resulting mixture was sprayed to foliage of the above soybeans so as to adequately adhere onto the surfaces of leaves of the above soybeans. After spraying the mixture, the soybeans were air-dried. After 2 to 5 days, an aqueous suspension of spores of Phakopsora pachyrhizi was inoculated by spraying to the soybeans. After the inoculation, the soybeans were placed in a greenhouse at 23° C. in daytime and at 20° C. in nighttime under a humid condition for 1 to 2 day(s), then cultured in a greenhouse for 12 days, and then a lesion area was investigated. As a result, the lesion area in the soybeans treated with each of the above Present compound was 30% or less relative to the lesion area in the non-treated soybeans.

[2] = system: soybean rust fungus (Phakopsora pachyrhizi) having an amino acid substitution of F129L in a mitochondrial cytochrome b protein; assay: Test Example 7 Control Test Against Soybean Rust (leaf disk); assay type: in vivo; conditions: 200 ppm, 10 μL per soybean leaf disk (cultivar: Kurosengoku), inoculated after 1 day
Procedure: as §1
A true leaf of a soybean (cultivar: Kurosengoku) was cut into a diameter of 1 cm to prepare each leaf disk. To each well of a 24 well microplate was dispensed 1 mL of an agar medium (agar concentration 1.2%), and then one of said leaf disk was placed on the agar medium in each well. To a mixture of Sorpol (registered trademark) 1200KX (0.5 μL), DMSO (4.5 μL), and xylene (5 μL) was added a DMSO solution (20 μL) comprising a test compound (10000 ppm), and the resulting mixture was mixed. The resulting mixture was diluted with ion exchange water to prepare a mixture comprising a prescribed concentration of the test compound.
The resulting mixture was sprayed into each leaf disk at a ratio of 10 μL per leaf disk. After 1 day, an aqueous suspension of spores of soybean rust fungus (Phakopsora pachyrhizi) having an amino acid substitution of F129L in a mitochondrial cytochrome b protein (1.0×10^5/mL) was inoculated by spraying on each leaf disk. After the inoculation, the microplate was placed into an artificial climate chamber (Lighting: 6 hours, Lights-out: 18 hours, Temperature: 23° C., Humidity: 60%). After 1 day, the leaf disks were air-dried until water droplets on the surfaces of the leaf disks disappeared, and the microplate was placed into the artificial climate chamber again for 12 days. Then, lesion area of soybean rust was investigated. As a result, when the prescribed concentration was 200 ppm, each lesion area of leaf disk treated with any one of the Present compound 9, 10, 11, 13, 14, 15, 16, 17, 18, 20, 32, 33, 34, 35, 36, 37, 38, 39, 40, 42, 43, 44, 47, 48, 49, 50, 51, 52, 53, 55, 56, 57, 58, 62, 63, 64, 65, 66, 67, 68, 69, 70, 71, 73, 74, 75, 76, 77, 78, 79, 80, 81, 82, 83, 84, 85, 86, 87, 88, 89, 90, 91, 92, 93, 94, 95, 96, 97, 98, 99, 100, 101, or 102 as the test compound was 30% or less relative to the lesion area of non-treated leaf disk.

[3] = system: Phakopsora pachyrhizi; assay: Test Example 15 Control Test Against Soybean Rust Fungus (spore germination, 96 well titer plate); assay type: cell-based; conditions: treatment concentration 1 ppm, 23° C., several hours
Procedure: as §1
The Present compound was diluted with DMSO to obtain a diluted solution containing 150 ppm of the compound, and 1 μL of the diluted solution was dispensed into a titer plate (96 well), and thereto was then dispensed 149 μL of an aqueous suspension (1.0×10^4/mL) of spores of Phakopsora pachyrhizi to which spores of Phakopsora pachyrhizi were suspended in advance. This plate was cultured at 23° C. for several hours, and then germinated spores of Phakopsora pachyrhizi were counted. As a result, when the treatment concentration was 1 ppm, the number of germinated spores in each well comprising any one of the Present compound 1, 11, 17, 18, 20, 23, 30, 33, 34, 35, 36, 37, 38, 39, 40, 41, 42, 43, 44, 46, 47, 48, 49, 50, 51, 52, 53, 54, 55, 56, 57, 58, 62, 63, 64, 65, 66, 67, 68, 69, 70, 71, 72, 73, 74, 75, 76, 77, 78, 79, 80, 81, 82, 83, 84, 85, 86, 87, 88, 89, 90, 91, 92, 93, 94, 95, 96, 97, 98, 99, 100, 101, or 102 as the test compound was 50% or less relative to the number of germinated spores in the non-treated well.

| Compound | lesion area relative to the lesion area in the non-treated soybeans [1] [%] | lesion area relative to the lesion area of non-treated leaf disk [2] [%] | number of germinated spores relative to the non-treated well [3] [%] |
| --- | --- | --- | --- |
| O=S(=O)(c1ccccc1F)n1ccc(-c2cc(F)c(Br)c(F)c2)n1 [compound 13] | ≤ 30 | ≤ 30 |  |
| O=S(=O)(c1ccoc1)n1ccc(-c2cc(F)cc(F)c2)n1 [compound 74] | ≤ 30 | ≤ 30 | ≤ 50 |
| O=S(=O)(c1ccco1)n1ccc(-c2ccc(F)c(F)c2)n1 [compound 91] | ≤ 30 | ≤ 30 | ≤ 50 |
| O=S(=O)(c1cccs1)n1ccc(-c2ccc3nonc3c2)n1 [compound 64] |  | ≤ 30 | ≤ 50 |
| O=S(=O)(c1cncc(F)c1)n1ccc(-c2cc(F)c(Br)c(F)c2)n1 [compound 100] | ≤ 30 | ≤ 30 | ≤ 50 |
| Cn1ccc(S(=O)(=O)n2ccc(-c3cc(F)c(Br)c(F)c3)n2)n1 [compound 34] | ≤ 30 | ≤ 30 | ≤ 50 |
| COc1ccc(S(=O)(=O)n2ccc(-c3cc(F)c(Br)c(F)c3)n2)cc1 [compound 22] | ≤ 30 |  |  |
| Cn1ccnc1S(=O)(=O)n1ccc(-c2cc(F)c(Br)c(F)c2)n1 [compound 38] | ≤ 30 | ≤ 30 | ≤ 50 |
| O=S(=O)(c1cccnc1)n1ccc(-c2cc(F)cc(F)c2)n1 [compound 98] | ≤ 30 | ≤ 30 | ≤ 50 |
| O=S(=O)(c1ccco1)n1ccc(-c2ccccc2)n1 [compound 85] | ≤ 30 | ≤ 30 | ≤ 50 |
| O=S(=O)(c1cccs1)n1ccc(-c2ccc3ncsc3c2)n1 [compound 65] |  | ≤ 30 | ≤ 50 |
| O=S(=O)(c1cccnc1Cl)n1ccc(-c2cc(F)c(Br)c(F)c2)n1 [compound 54] | ≤ 30 |  | ≤ 50 |
| O=S(=O)(c1cc(Cl)cc(Cl)c1)n1ccc(-c2cc(F)c(Br)c(F)c2)n1 [compound 16] |  | ≤ 30 |  |
| CN(C)c1ccc(-c2ccn(S(=O)(=O)c3cccs3)n2)cc1 [compound 46] | ≤ 30 |  | ≤ 50 |
| COc1cccc(S(=O)(=O)n2ccc(-c3cc(F)c(Br)c(F)c3)n2)c1 [compound 23] | ≤ 30 |  | ≤ 50 |
| O=S(=O)(c1cccs1)n1ccc(-c2ccc(F)cc2)n1 [compound 90] | ≤ 30 | ≤ 30 | ≤ 50 |
| O=S(=O)(c1ccco1)n1ccc(-c2cccc(F)c2)n1 [compound 94] | ≤ 30 | ≤ 30 | ≤ 50 |
| O=S(=O)(c1cc2ccccc2o1)n1ccc(-c2cc(F)c(Br)c(F)c2)n1 [compound 30] |  |  | ≤ 50 |
| N#Cc1cccc(S(=O)(=O)n2ccc(-c3cc(F)c(Br)c(F)c3)n2)c1 [compound 26] | ≤ 30 |  |  |
| Cn1cc(S(=O)(=O)n2ccc(-c3cc(F)c(Br)c(F)c3)n2)cn1 [compound 35] | ≤ 30 | ≤ 30 | ≤ 50 |
| Cc1cccc(S(=O)(=O)n2ccc(-c3cc(F)c(Br)c(F)c3)n2)c1 [compound 20] | ≤ 30 | ≤ 30 | ≤ 50 |
| O=S(=O)(c1cccs1)n1ccc(-c2ccc3c(c2)OC(F)(F)O3)n1 [compound 63] |  | ≤ 30 | ≤ 50 |
| O=S(=O)(c1ccco1)n1ccc(-c2ccc(F)cc2)n1 [compound 88] | ≤ 30 | ≤ 30 | ≤ 50 |
| N#Cc1ccc(S(=O)(=O)n2ccc(-c3cc(F)c(Br)c(F)c3)n2)cc1 [compound 27] | ≤ 30 |  |  |
| Cc1ccc(S(=O)(=O)n2ccc(-c3cc(F)c(Br)c(F)c3)n2)o1 [compound 72] |  |  | ≤ 50 |
| O=S(=O)(c1ccc(F)cc1)n1ccc(-c2cc(F)c(Br)c(F)c2)n1 [compound 14] | ≤ 30 | ≤ 30 |  |
| O=S(=O)(c1c(Cl)cccc1Cl)n1ccc(-c2cc(F)c(Br)c(F)c2)n1 [compound 15] | ≤ 30 | ≤ 30 |  |
| Cc1ccc(S(=O)(=O)n2ccc(-c3cc(F)c(Br)c(F)c3)n2)cc1 [compound 21] | ≤ 30 |  |  |
| Cc1ccc(S(=O)(=O)n2ccc(-c3ccc(Cl)cc3)n2)cc1 [compound 1] |  |  | ≤ 50 |
